Patent publication US10654834B2 (Venenum Biodesign, LLC, priority 2016, dated 2020)

Key:
mouse TGR5 receptor = biological target: T1, mouse TGR5 receptor (Mus musculus, UniProt Q80SS6); experiment: Mouse TGR5 HTRF cAMP production assay (HEK293-EBNA cells, Cisbio cAMP HiRange kit); assay type: cell-based; conditions: HEK293-EBNA cells overexpressing mouse TGR5, HTRF cAMP assay
T1 construct: host or cells: HEK293-EBNA (293 c18, ATCC CRL10852)
T1 sequence (Q80SS6 1-329): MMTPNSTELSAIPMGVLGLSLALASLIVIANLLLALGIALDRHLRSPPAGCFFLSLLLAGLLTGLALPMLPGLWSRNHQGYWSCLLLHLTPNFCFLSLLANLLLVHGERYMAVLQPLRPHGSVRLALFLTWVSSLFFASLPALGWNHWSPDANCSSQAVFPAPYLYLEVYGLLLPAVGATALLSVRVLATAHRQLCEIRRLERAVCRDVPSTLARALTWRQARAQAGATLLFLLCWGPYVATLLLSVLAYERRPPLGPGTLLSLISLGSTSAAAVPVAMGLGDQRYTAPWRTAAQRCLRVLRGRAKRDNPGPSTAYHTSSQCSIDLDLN
Outline: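 HEK293-EBNA cells stably expressing mouse TGR5 (episomal vector) were suspended in serum-free DMEM with 500 μM IBMX and exposed to 12-point half-log compound dilutions for 1 h at room temperature. cAMP was detected by HTRF (d2-cAMP/anti-cAMP cryptate, 1 h, room temperature), giving EC50 from duplicates.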

human TGR5 receptor = biological target: T2, human TGR5 receptor (Homo sapiens, UniProt Q8TDU6); experiment: Human TGR5 cAMP production assay (hTGR5-CHO cells, DiscoveRx cAMP XS+ kit); assay type: cell-based; conditions: luminescent cAMP assay, read-out: Human TGR5 Lum. cAMP Activity (EC50)
T2 construct: host or cells: CHO-K1 (hTGR5-CHO)
T2 sequence (Q8TDU6 1-330): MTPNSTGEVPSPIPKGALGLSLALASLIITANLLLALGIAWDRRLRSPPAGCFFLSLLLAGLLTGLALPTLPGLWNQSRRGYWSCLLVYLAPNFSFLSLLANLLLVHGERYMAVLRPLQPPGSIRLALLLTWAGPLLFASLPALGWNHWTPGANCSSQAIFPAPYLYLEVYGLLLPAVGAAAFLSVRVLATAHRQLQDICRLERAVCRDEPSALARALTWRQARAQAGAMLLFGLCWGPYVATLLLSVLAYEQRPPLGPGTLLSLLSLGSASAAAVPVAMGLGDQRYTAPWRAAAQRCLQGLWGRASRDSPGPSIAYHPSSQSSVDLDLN
Outline: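 CHO-K1 cells stably expressing hTGR5, in PBS with IBMX and cAMP antibody, treated with half-log compound dilutions for 1 h at room temperature. cAMP measured by enzyme-fragment complementation luminescence after overnight detection; EC50 values reported.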

Row | SMILES | EC50 (mouse TGR5 receptor) [nM] | EC50 (human TGR5 receptor) [nM]
1 | N#Cc1ccc(CCNC(=O)[C@@H]2CCN2c2cc(N3CCC(CCCC(=O)NCCOCCNS(=O)(=O)c4ccc(C(=O)O)cc4)CC3)nc(C(F)(F)F)n2)cc1 [Compound 291, (S)-4-(N-(2-(2-(4-(1-(6-(2-((4-cyanophenethyl)carbamoyl)azetidin-1-yl)-2-(trifluoromethyl)pyrimidin-4-yl)piperidin-4-yl)butanamido)ethoxy)ethyl)sulfamoyl)-benzoic acid] | < 100 | 100 to 999
2 | CN(CCS(=O)(=O)O)c1c(NCCC2CCN(c3cc(N4CC[C@H]4C(=O)NCCc4ccc(C#N)cc4)nc(C(F)(F)F)n3)CC2)c(=O)c1=O [Compound 299, (S)-2-((2-((2-(1-(6-(2-((4-cyanophenethyl)carbamoyl)azetidin-1-yl)-2-(trifluoromethyl)pyrimidin-4-yl)piperidin-4-yl)ethyl)amino)-3,4-dioxocyclobut-1-en-1-yl)(methyl)amino)ethanesulfonic acid] | < 100 | < 100
3 | CC(C)(C)OC(=O)CCNc1c(NCCC2CCN(c3cc(N4CC[C@H]4C(=O)NCCc4ccc(C#N)cc4)nc(C(F)(F)F)n3)CC2)c(=O)c1=O [Compound 300, (S)-tert-butyl 3-((2-((2-(1-(6-(2-((4-cyanophenethyl)carbamoyl)azetidin-1-yl)-2-(trifluoromethyl)pyrimidin-4-yl)piperidin-4-yl)ethyl)amino)-3,4-dioxocyclobut-1-en-1-yl)amino)propanoate] | < 100 | 100 to 999
4 | N#CCCC1CCN(c2cc(N3CCC[C@@H](C(=O)NCCc4ccc(C#N)cc4)C3)nc(C(F)(F)F)n2)CC1 [Compound 311, (R)-1-(6-(4-(2-cyanoethyl)piperidin-1-yl)-2-(trifluoromethyl)pyrimidin-4-yl)-N-(4-cyanophenethyl)piperidine-3-carboxamide] | < 100 | < 100
5 | CC(C)(C)OC(=O)NCCC1CCN(c2cc(N3CCC[C@@H](C(=O)NCCc4ccc(C#N)cc4)C3)nc(C(F)(F)F)n2)CC1 [Compound 312, (R)-tert-butyl (2-(1-(6-(3-((4-cyanophenethyl)carbamoyl)piperidin-1-yl)-2-(trifluoromethyl)pyrimidin-4-yl)piperidin-4-yl)ethyl)carbamate] | 100 to 999 | 100 to 999
6 | N#Cc1ccc(CCNC(=O)[C@@H]2CCCN(c3cc(N4CCN(CCOCCO)CC4)nc(C(F)(F)F)n3)C2)cc1 [Compound 314, (R)-N-(4-cyanophenethyl)-1-(6-(4-(2-(2-hydroxyethoxy)ethyl)piperazin-1-yl)-2-(trifluoromethyl)pyrimidin-4-yl)piperidine-3-carboxamide] | < 100 | 100 to 999
7 | N#Cc1ccc(CCNC(=O)[C@@H]2CCCN(c3cc(N4CCN(CC(=O)O)CC4)nc(C(F)(F)F)n3)C2)cc1 [Compound 315, (R)-2-(4-(6-(3-((4-cyanophenethyl)carbamoyl)piperidin-1-yl)-2-(trifluoromethyl)pyrimidin-4-yl)piperazin-1-yl)acetic acid] | < 100 | 1000 to 30000
8 | N#CCCN1CCN(c2cc(N3CCC[C@@H](C(=O)NCCc4ccc(C#N)cc4)C3)nc(C(F)(F)F)n2)CC1 [Compound 316, (R)-1-(6-(4-(2-cyanoethyl)piperazin-1-yl)-2-(trifluoromethyl)pyrimidin-4-yl)-N-(4-cyanophenethyl)piperidine-3-carboxamide] | < 100 | < 100
9 | N#Cc1ccc(CCNC(=O)[C@@H]2CCCN(c3cc(N4CCN(CCn5ccnc5)CC4)nc(C(F)(F)F)n3)C2)cc1 [Compound 318, (R)-1-(6-(4-(2-(1H-imidazol-1-yl)ethyl)piperazin-1-y1)-2-(trifluoromethyl)pyrimidin-4-yl)-N-(4-cyanophenethyl)piperidine-3-carboxamide] | < 100 | 100 to 999
10 | COc1cc(C(F)(F)F)ccc1CCNC(=O)[C@@H]1CCCN(c2cc(N3CCC(CO)CC3)nc(C(F)(F)F)n2)C1 [Compound 331] | 100 to 999 | < 100
11 | O=C(CCCC1CCN(c2cc(N3CCC[C@@H](C(=O)NCCc4ccc(C(F)(F)F)cc4)C3)nc(C(F)(F)F)n2)CC1)NCCS(=O)(=O)O [Compound 336, (R)-2-(4-(1-(2-(trifluoromethyl)-6-(3-((4-(trifluoromethyl)phenethyl)carbamoyl)-piperidin-1-yl)pyrimidin-4-yl)piperidin-4-yl)butanamido)ethanesulfonic acid] | < 100 | 100 to 999
12 | CN(C)CC(=O)N1CCN(c2cc(N3CCC[C@@H](C(=O)NCCc4ccc(C(F)(F)F)cc4)C3)nc(C(F)(F)F)n2)CC1 [Compound 338, (R)-1-(6-(4-(2-(dimethylamino)-acetyl)piperazin-1-yl)-2-(trifluoromethyl)-pyrimidin-4-yl)-N-(4-(trifluoromethyl)phenethyl)-piperidine-3-carboxamide] | 100 to 999 | 100 to 999
13 | COC(=O)C(=O)N1CCN(c2cc(N3CCC[C@@H](C(=O)NCCc4ccc(C(F)(F)F)cc4)C3)nc(C(F)(F)F)n2)CC1 [Compound 339, (R)-methyl 2-oxo-2-(4-(2-(trifluoromethyl)-6-(3-((4-(trifluoromethyl)phenethyl)-carbamoyl)piperidin-1-yl)pyrimidin-4-yl)piperazin-1-yl)acetate] | 100 to 999 | 1000 to 30000
14 | O=C(O)C(=O)N1CCN(c2cc(N3CCC[C@@H](C(=O)NCCc4ccc(C(F)(F)F)cc4)C3)nc(C(F)(F)F)n2)CC1 [Compound 340, (R)-2-oxo-2-(4-(2-(trifluoromethyl)-6-(3-((4-(trifluoromethyl)phenethyl)-carbamoyl)piperidin-1-yl)pyrimidin-4-yl)piperazin-1-yl)acetic acid] | < 100 | 100 to 999
15 | CC(C)(C)OC(=O)N[C@@H](CO)C(=O)N1CCN(c2cc(N3CCC[C@@H](C(=O)NCCc4ccc(C(F)(F)F)cc4)C3)nc(C(F)(F)F)n2)CC1 [Compound 341, tert-butyl ((S)-3-hydroxy-t-oxo-1-(4-(2-(trifluoromethyl)-6-((R)-3-((4-(trifluoromethyl)phenethyl)carbamoyl)piperidin-1-yl)pyrimidin-4-yl)piperazin-1-yl)propan-2-yl)carbamate] | 100 to 999 | 1000 to 30000
16 | CCOC(=O)CCNC(=O)N1CCN(c2cc(N3CCC[C@@H](C(=O)NCCc4ccc(C(F)(F)F)cc4)C3)nc(C(F)(F)F)n2)CC1 [Compound 343, (R)-ethyl 3-(4-(2-(trifluoromethyl)-6-(3-((4-(trifluoromethyl)phenethyl)carbamoyl)-piperidin-1-yl)pyrimidin-4-yl)piperazine-1-carboxamido)propanoate] | < 100 | 100 to 999
17 | O=C(O)CCNC(=O)N1CCN(c2cc(N3CCC[C@@H](C(=O)NCCc4ccc(C(F)(F)F)cc4)C3)nc(C(F)(F)F)n2)CC1 [Compound 344, (R)-3-(4-(2-(trifluoromethyl)-6-(3-((4-(trifluoromethyl)phenethyl)carbamoyl)-piperidin-1-yl)pyrimidin-4-yl)piperazine-1-carboxamido)propanoic acid] | < 100 | 100 to 999
18 | N#Cc1ccc(CCNC(=O)[C@@H]2CCCN(c3cc(N4CCC(CCN)CC4)nc(C(F)(F)F)n3)C2)cc1 [Compound 345, (R)-1-(6-(4-(2-aminoethyl)piperidin-1-yl)-2-(trifluoromethyl)pyrimidin-4-yl)-N-(4-cyanophenethyl)piperidine-3-carboxamide] | < 100 | < 100
19 | O=C(NCCc1ccc(C(F)(F)F)cc1)[C@@H]1CCCN(c2cc(N3CCN(C(=O)CO)CC3)nc(C(F)(F)F)n2)C1 [Compound 348, (R)-1-(6-(4-(2-hydroxyacetyl)piperazin-1-yl)-2-(trifluoromethyl)pyrimidin-4-yl)-N-(4-(trifluoromethyl)phenethyl)piperidine-3-carboxamide] | < 100 | 100 to 999
20 | CCOC(=O)CCN/C(=N\C#N)NCCC1CCN(c2cc(N3CC[C@H]3C(=O)NCCc3ccc(C#N)cc3)nc(C(F)(F)F)n2)CC1 [Compound 350, (S,Z)-ethyl 3-(2-cyano-3-(2-(1-(6-(2-((4-cyanophenethyl)carbamoyl)azetidin-1-yl)-2-(trifluoromethyl)pyrimidin-4-yl)piperidin-4-yl)ethyl)guanidino)propanoate] | < 100 | < 100
